What was measured:
[1] = Thermal decomposition point; type: physicochemical; conditions: pure IPBC or IPBC in the inclusion complex
Protocol: The melting point of pure IPBC is 66-67° C. and its decomposition occurs at about 150-155° C., leading to formation of highly colored by-products. The decomposition point of IPBC in the inclusion complex of Examples 1 and 3 was determined to be about 222-225° C.

[2] = Dissolution in water: stirring in water for 1/2 hour, filtration, recovery of IPBC (Example 2); type: physicochemical; conditions: 4 g IPBC in 96 g water, stirred 1/2 hour
Protocol: Four grams of IPBC were added to 96 g of water and stirred for 1/2 hour. The resulting slurry was filtered off and the filter cake was dried and weighed. […] Approximately 27 g of the lyophilized inclusion complex prepared in Example 1 was added to 73 g water and the mixture was stirred for 1/2 hour. […] Use of the inclusion complex in this manner thus affords approximately 4% solution of IPBC in water, which is a solubility enhancement of approximately 250-300 times.

With `CCCCNC(=O)OCC#CI` [IPBC, 3-iodo-2-propynyl butylcarbamate] the decomposition point [1] was 150-155 °C and the “IPBC recovered in the filter cake” value [2] was “Approximately 98%”.

Reference: US5906981A, “Halopropargyl inclusion complexes” (Troy Corporation, priority 1996, dated 1999)
